Experimental data as given in patent US5756538A, “Flavonoid and biflavonoid derivatives, their pharmaceutical compositions, their anxiolytic activity” (University of Strathclyde, priority 1993, dated 1998).
Like-named read-outs stand apart in the source and are kept apart here.

How the values were obtained:
mice [1] = assay: Locomotor activity test (OPTO-VARIMEX)
Description: Male CF1 mice from our breeding stock weighing 28-35 g were used. The animals were placed in groups of 10-12 with free access to water and food, and maintained on a 12 h/12 h day-night cycle.
Diazepam (DZ; Hoffman-La Roche) and the flavonoids were dissolved in DMSO 40%, NaOH 0.1N (7:3: v/v) at pH 8.2 Control animals were injected with the same vehicle (VEH). RO 15-1788 (Hoffmann-La Roche) was suspended in DMSO 10%, propyleneglycol 10% in distilled water.
(c) Locomotor Activity Test: we used an OPTO-VARIMEX apparatus consisting of a glass box (36×15×20 cm) and two lateral bars with 15 light beams (0.32 cm diameter, beam spacing 2.65 cm). The apparatus detects automatically all the mouse movements, and discriminates between total and ambulatory activity. The locomotor activity (number of movements across the beams) was counted during 5 min. An increase in the number of transitions through the beams reflects an augmented locomotor activity.
The general procedure for all the tests is as follows: mice were injected with vehicle or the drug solution 20 min before the beginning of the test and put into another home cage. Ro 15-1788, a specific BZD receptor antagonist was injected 10 min before the tested drug. All the injections were given intraperitoneally (i.p.). Control mice were tested in each session, in parallel with those animals receiving the test drug or diazepam. Testing was carried out `blind`. All data were submitted to analysis of variance (ANOVA). Post-hoc comparisons between individual treatments and controls were made using Dunnett's t-test.
FIGS. 15, 16, 17 and 18 show ambulatory locomoter activity counts during a 5 min. test session in an OPTO-Varimex apparatus, 20 min. after i.p. injection with a mixture of brominated flavones (0.6,1,3 mg/kg), FIG. 15; 2' chlorinated chrysin (1,3 mg/kg); FIG. 16; 2' fluorinated chrysin (3 mg/kg), FIG. 17; 6,8 dibromoflavone, FIG. 18. Data are expressed as medians (interquartile range) of (n) number of animals.

benzodiazepine receptor = assay: Competitive inhibition of 3H-flunitrazepam binding to benzodiazepine receptor (cerebral cortical membranes); set-up: species or system bovine
Description: (Competitive inhibition of H^3 -flunitrazepam to benzodiazepine receptor)
Binding of 3H-flunitrazepam (0.7 nM) to the benzodiazepine receptor was carried out in extensively washed cerebral cortical membranes.
H^3 -flunitrazepam has a Ki of […] to the benzodiazepine receptor.
IC50 values were obtained using flavonoids at different concentrations (10^-10 to 10^-3 M).
Structure - activity relationships of several flavonoids on
the ^3 H Flunitrazepam binding to bovine brain membranes.

[2] = test system: locus coeruleus noradrenaline; assay: Noradrenaline levels in locus coeruleus after immobilization stress; assay type: in vivo, rats; conditions: 1 mg/kg i.p., 30 min before 90-min stress session
Description: Rats were submitted to a 90-minute immobilization stress session in a plastic cylinder. The locus coeruleus was dissected out after killing by decapitation and noradrenaline assessed by HPLC with electrochemical detection. Doses were 1 mg/kg for each substance, injected i.p., 30 minutes before the stress session.

mice [3] = assay: Horizontal wire test (muscle relaxation); assay type: in vivo, mice (male CF1)
Description: (d) Horizontal Wire Test: It consisted of an horizontally strung wire (1 mm diameter, 15 cm long), placed at 20 cm from the table. Mice were lifted by the tail, allowed to grasp the wire with their forepaws and released. […] After two trials, performed at 5 min. intervals, the test took place. A myorelaxant drug, like diazepam at high doses, will impair the ability of mice to grasp the wire. Generally, this state of muscle relaxation is commonly associated with sedation.
(§1) All the injections were given intraperitoneally (i.p.). […] Testing was carried out `blind`. All data were submitted to analysis of variance (ANOVA).
The test took place after two trials, executed after a 5 min interval.

mice [4] = assay: Holeboard test (exploratory activity, sedation); assay type: in vivo, mice (male CF1)
Description: (b) Holeboard Test: consisted of a wood box (60×60×30 cm) with four 2 cm diameter holes equidistant in the floor. The number of head-dips and the time spent head-dipping were counted during 5 min. An increase in the number and the time spent head-dipping implies a greater exploratory activity.
as §1

mice [5] = assay: Elevated plus maze (anxiety); assay type: in vivo, mice (male CF1); conditions: for Total arm entries / Percentage of entries in the open arms / Percentage of the time spent on the open arms: 20 min after injection; for Total arm entries: 5 min test, mean ± S.E.M.
Description: (a) Elevated Plus Maze: consisted of 4 perpendicularly disposed wood arms (20×5 cm; two had 35 cm high wood walls, and two were open) linked by a central 10×10 cm square. The maze was suspended 50 cm from the room floor. Animals were placed on the central part of the maze facing a closed arm. This test has been widely validated to measure anxiety in rodents. The number of entries into and the time spent in the open and closed arms were counted during 5 min. […] Total exploratory activity (number of entries in both arms) was also determined.
as §1

mice [6] = assay: PTZ induced seizures in mice (anticonvulsant activity); assay type: in vivo
Description: (Induced seizures in mice)
Benzodiazepines in general show an anxiolytic effect, a sedative effect and an anticonvulsant effect. In order to assess the present compounds for anticonvulsant activity the following experiment was carried out.
The method of Medina et al Biochem.Pharm. 40 p2227-2231, (1990) was followed (with the exception that injections were carried out intraperitoneally) and the mice observed for seizures.
EFFECTS OF IP ADMINISTRATION OF APIGENIN ON PTZ
INDUCED SEIZURES IN MICE.
The convulsant doses of pentylenetetrazole are between 50-80 mg/kg in different experiments carried out in 6 independent days.

[7] = bovine brain membranes, 0.7 nM 3H-flunitrazepam, read-out: 3H Flunitrazepam binding IC50
[8] = 3H-flunitrazepam 0.7 nM, read-out: IC50 at the benzodiazepine receptor

6,8 dibromoflavone
Ambulatory locomotor activity counts vs controls (mice [1]; i.p., dose not stated): No significant difference

O=c1cc(-c2ccccc2Cl)oc2cc(O)cc(O)c12 [2' chlorochrysin, 5,7-Dihydroxy-2'-chloroflavone]
Ambulatory locomotor activity counts vs controls (mice [1]; 1, 3 mg/kg i.p., 20 min after injection, 5 min session): No significant difference | IC50 (benzodiazepine receptor; [7]): 9000 nM

O=c1cc(-c2ccccc2F)oc2cc(O)cc(O)c12 [2' fluorochrysin, 5,7-Dihydroxy-2'-fluoroflavone]
Ambulatory locomotor activity counts vs controls (mice [1]; 3 mg/kg i.p., 20 min after injection, 5 min session): No significant difference | IC50 (benzodiazepine receptor; [7]): 8000 nM

COc1cc(O)c2c(=O)cc(-c3ccccc3)oc2c1 [5 hydroxy 7 methoxyflavone, 5-hydroxy-7-methoxyflavone]
IC50 (benzodiazepine receptor; [7]): 46000 nM

O=c1cc(-c2ccccc2)oc2c(Br)c(O)c(Br)c(O)c12 [6,8 dibromochrysin, 6,8-Dibromo-5,7-dihydroxyflavone]
Benzodiazepine ligand behaviour / affinity relative to 3H-flunitrazepam (benzodiazepine receptor): benzodiazepine ligand behaviour similar to that of ^3 H-flunitrazepam | IC50 (benzodiazepine receptor; [8]): 700 to 3000 nM | IC50 (benzodiazepine receptor; [7]): 700 nM

O=c1cc(-c2ccccc2)oc2cc(Br)ccc12 [7-bromoflavone]
Ambulatory locomotor activity counts vs controls (mice [1]; i.p., dose not stated): No significant change | Benzodiazepine ligand behaviour / affinity relative to 3H-flunitrazepam (benzodiazepine receptor): far higher affinity for the benzodiazepine receptor | IC50 (benzodiazepine receptor; [8]): 50 nM | IC50 (benzodiazepine receptor; [7]): 50 nM

O=c1cc(-c2ccc(O)c(-c3c(O)cc(O)c4c(=O)cc(-c5ccc(O)cc5)oc34)c2)oc2cc(O)cc(O)c12 [Amentoflavone]
Benzodiazepine ligand behaviour / affinity relative to 3H-flunitrazepam (benzodiazepine receptor): far higher affinity for the benzodiazepine receptor | IC50 (benzodiazepine receptor; [8]): 10 nM | IC50 (benzodiazepine receptor; [7]): 10 nM

O=c1cc(-c2ccc(O)cc2)oc2cc(O)cc(O)c12 [Apigenin, 4', 5,7-trihydroxyflavone]
Noradrenaline decrease in locus coeruleus provoked by immobilization stress [2]: blocked almost completely the noradrenaline decrease | Potency vs diazepam on stress-provoked noradrenaline decrease [2]: most potent effect | Noradrenaline decrease in locus coeruleus provoked by immobilization stress ([2]; listed as apigenin): dampened the noradrenaline decrease | Effect in the horizontal wire test (mice [3]; 3 and 10 mg/kg i.p.): did not induce any effect | Effect in the holeboard test (mice [4]; 3 and 10 mg/kg i.p.): did not induce any effect | Anxiolytic effect in the elevated plus maze (mice [5]; i.p.): shows anxiolytic effects | Number of animals with clonic convulsions (mice [6]; 3 mg/kg i.p. + PTZ): 8/8 | Number of animals with clonic convulsions (mice [6]; 20 mg/kg i.p. + PTZ): 3/3 | Number of animals with clonic convulsions (mice [6]; 40 mg/kg i.p. + PTZ): 12/14 | Number of animals with clonic convulsions (mice [6]; 80 mg/kg i.p. + PTZ): 11/11 | Anticonvulsant activity (mice [6]; i.p., PTZ induced seizures): no anticonvulsant activity | Benzodiazepine ligand behaviour / affinity relative to 3H-flunitrazepam (benzodiazepine receptor): benzodiazepine ligand behaviour similar to that of ^3 H-flunitrazepam | IC50 (benzodiazepine receptor; [8]): 700 to 3000 nM | IC50 (benzodiazepine receptor; [7]): 3000 nM

CN1C(=O)CN=C(c2ccccc2)c2cc(Cl)ccc21 [Diazepam, reference compound]
Locomotor activity (mice [1]; 0.3-3 mg/kg i.p., 20 min after injection): increasing locomotor activity | Percentage of animals grasping the horizontal wire (mice [3]; 6 mg/kg i.p.): significantly decreased | Number of head-dips (mice [4]; 0.3 mg/kg i.p.): increased the number of head-dips (p<0.05) | Time spent head-dipping (mice [4]; 1 mg/kg i.p.): increased the time spent head-dipping(p<0.01) | Number of head-dips (mice [4]; 6 mg/kg i.p.): decrease in both the number of head-dips and in the time spent head-dipping (p<0.01) | Sedation (mice [4]; 6 mg/kg i.p.): indicates sedation | Time spent head-dipping (mice [4]; 6 mg/kg i.p.): decrease in both the number of head-dips and in the time spent head-dipping (p<0.01) | Total arm entries (mice [5]; 0.3 mg/kg i.p.): 10.5 ± 0.8 | Total arm entries (mice [5]; 0.6 mg/kg i.p.): 12.4 ± 1.9 | Percentage of entries in the open arms (mice [5]; 0.3 and 0.6 mg/kg i.p.): increased the percentage of entries in the open arms (p<0.01) | Percentage of the time spent on the open arms (mice [5]; 0.3 and 0.6 mg/kg i.p.): the percentage of the time spent on the open arms (p<0.01) | Anxiolytic effect in the elevated plus maze (mice [5]; i.p.): displayed an anxiolytic effect | Total arm entries, difference from controls (mice [5]; i.p., doses of Table I): No differences were observed | Number of animals with clonic convulsions (mice [6]; 3 mg/kg i.p. + PTZ): 0/6

O=c1cc(-c2ccccc2)oc2ccccc12 [Flavone, 2-phenyl-4H-1-benzopyran-4-one]
Percentage of entries in the open arms (mice [5]; 1 mg/kg i.p.): increased the percentage of entries and time spent in the open arms (p<0.002) | Percentage of the time spent on the open arms (mice [5]; 1 mg/kg i.p.): increased the percentage of entries and time spent in the open arms (p<0.002) | Benzodiazepine ligand behaviour / affinity relative to 3H-flunitrazepam (benzodiazepine receptor): benzodiazepine ligand behaviour similar to that of ^3 H-flunitrazepam | IC50 (benzodiazepine receptor; [8]): 700 to 3000 nM | IC50 (benzodiazepine receptor; [7]): 1000 nM

COc1cc(O)c2c(=O)cc(-c3ccc(OC)c(-c4c(O)cc(O)c5c(=O)cc(-c6ccc(O)cc6)oc45)c3)oc2c1 [Ginkgetin]
IC50 (benzodiazepine receptor; [7]): 5000 nM

CN1C(=O)CN=C(c2ccccc2F)c2cc([N+](=O)[O-])ccc21 [H^3 -flunitrazepam, reference compound]
Ki (benzodiazepine receptor): 3 nM

COc1ccc(-c2cc(=O)c3c(O)cc(O)c(-c4cc(-c5cc(=O)c6c(O)cc(O)cc6o5)ccc4OC)c3o2)cc1 [Isoginkgetin]
IC50 (benzodiazepine receptor; [7]): 4000 to 5000 nM

O=c1c(O[C@@H]2O[C@H](CO)[C@@H](O)[C@H](O)[C@H]2O)c(-c2ccc(O)c(O)c2)oc2cc(O)cc(O)c12 [Isoquercetin, reference compound]
IC50 (benzodiazepine receptor; [7]): 10000 nM

O=c1c(O[C@@H]2O[C@H](CO)[C@@H](O)[C@H](O)[C@H]2O)c(-c2ccc(O)c(O)c2)oc2cc(O)cc(O)c12 [Isoquercitrin, reference compound]
IC50 (benzodiazepine receptor; [7]): 80000 nM

C[C@@H]1O[C@@H](OC[C@H]2O[C@@H](Oc3c(-c4ccc(O)c(O)c4)oc4cc(O)cc(O)c4c3=O)[C@H](O)[C@@H](O)[C@@H]2O)[C@H](O)[C@H](O)[C@H]1O [Rutin, reference compound]
IC50 (benzodiazepine receptor; [7]): 60000 nM

O=C1CC(c2ccccc2)Oc2ccccc21 (centres unmarked) [flavanone, reference compound]
IC50 (benzodiazepine receptor; [7]): 40000 nM
